Data as given in patent publication US7560439B2, “Method for increasing the gene expression of transfected genes” (Sigma-Tau Industrie Farmaceutiche Riunite S.p.A., priority 2000, dated 2009).
Where “and” joins values, the source holds several entries; their conditions need not be identical. Equal entries are not always repeated.

Experiments:
[1] = tested on: luciferase expression from transfected pRL-CMV plasmid in HeLa cells; experiment: Luciferase assay in HeLa cells transiently transfected with pRL-CMV plasmid; assay type: cell-based; conditions: for RLU/mg mean: HeLa 100000/12-well plates, 1.5 μg/well
Procedure: Cell cultures. The uterine cervical carcinoma cell line HeLa, ATCC was used. The cells were cultured in RPMI 1640 Medium (eurobio), containing antibiotics and 10% foetal calf serum.
Treatment with acetyl-L-carnitine (ALC). 4×10^6 and 5×10^6 cells cultured in a medium containing ALC at final concentrations of 5 mM and 10 mM, respectively, were seeded in two 125 cm^3 flasks, whereas 2×10^6 cells not treated with ALC were plated in a 75 cm^3 flask. The treatment was repeated after 48 h (coinciding with the seeding of the cells for transfection) and after 72 h (at the end of transfection) and was also repeated after 120 h only in the case of samples transfected for lysis at 72 h.
Transient transfection of pRL-CMV plasmid. The cells were seeded for transfection 24 h before in 12-well plates (Corning), in amounts corresponding to 10^5 cells per well. The transfection was carried out in triplicate for each sample using the liposome DOTAP (Boehringer-Mannheim, Indianapolis, Ind.) and the plasmid pRL-CMV (Promega cat. N° E2261). In brief, 1.5 μg/well of DNA and 9.2 μM/well of liposome were used per sample, considering a final volume of 1050 μl/sample; the transfection mixture (25 μl /sample) was left at ambient temperature for 30 min and then HBS 2× (20 mM HEPES, 150 mM NaCl, pH 7.4) was added in amounts of 25 μl/ sample, and 50 μl/sample of the solution thus obtained was added to the cells for 5 hours. After carrying out three washings with PBS (phosphate buffer pH 7.4) without calcium and magnesium, the cells were cultured in growth medium containing ALC at the concentrations indicated in the treatments up to the time of cell lysis for the luciferase assay. As a control, naked DNA was added in a 1× HBS solution.
The cells were washed with PBS (phosphate buffer pH 7.4) without calcium and magnesium and subjected to lysis by means of the addition of 200 μl of lysis buffer contained in the GeneLux L002-100 kit (Wallac) used for the luciferase assay. After 20 min, total proteins were collected and 10 μl of each sample were assayed for luciferase, following the procedures indicated in the kit; the assay was carried out in 96-multiwell plates using the Victor^2 luminometer (Wallac). The luminescence readings obtained, expressed in relative light units (RLU), were normalised for mg of total proteins, calculated using the Bradford Method.

[2] = tested on: transfected intracellular plasmidic DNA (pRL-CMV) in HeLa cells; experiment: Slot blot quantification of transfected intracellular plasmidic DNA; assay type: cell-based
Procedure: To verify if the positive effect of ALC on luciferase activity was related to an activation of transcriptional machinery or to an increasing of cell permeability, we decided to quantify the total amount of transfected intracellular plasmidic DNA by Slot blot analysis.
Cell culture. Cervical carcinoma cell line HeLa (ATCC) were maintained in RPMI medium (Europio) supplemented with 10% foetal calf serum, 1% P/S in a humidified atmosphere with 5% CO2 ALC treatment 5×10^6 cells were plated in a 125-cm^3 flask and maintained in RPMI, supplemented as described above, containing ALC at two concentrations (5 mM and 10 mM) 4 days before transfection. The treatment was repeated at the end of transfection. Untreated cells were cultured in the same condition and used as control.
Transient Expression of pRL-CMV. 10^5 cells/well were plated 1 day before transfection in 12 multiwells plate (Corning). DOTAP liposome (Boehringer-Mannheim, Indianapolis, Ind.) and pRL-CMV plasmid (Promega cat. N° E2261) were used for transfection, 6 wells/sample. Briefly, 1.5 μg/well of DNA and a water solution of liposome at 9.2 μM were mixed at room temperature (25 μl/sample) to form DNA-liposome complex. After incubation for 30 min, the same volume/well of HBS 2× (20 mM HEPES, 150 mM NaCl, pH 7.4) was added and the transfection mixture was aliquotated (50 μl/well in supplemented medium). The cells were incubated with the complex for 5 h and the complex removed by washing with PBS (phosphate-buffered saline, pH 7.4, Ca^++ and Mg^++ free). Cells were maintained in supplemented medium, containing ALC, for 24h and then used for analysis. Nude DNA in HBS 1× (pRL-CMV) was transfected as control.
DNA extraction. Total cellular DNA was extracted by alkaline lysis from transfected cells according to the method reported by Maniatis. After washing with PBS, cells were collected with PBS (1 ml/well) and centrifuged at 1500×g for 10 min at r.t.
According to protocol, each pellet, placed on ice, was lysed using: 100 μl of solution I [50 mM glucose, 25 mM Tris-HCl (pH=8), 10 mM EDTA (pH=8)], 200 μl of solution II [0.2 N NaOH, 1% SDS], 150 μl of solution III (5M potassium acetate, glacial acetic acid]. After centrifugation at 12000×g for 5 min at 4° C., surnatant was collected and DNA was precipitated with EtOH. Pellet was resuspended in TE 1× (50 μl/sample).
Probe labelling. The probe, the luciferase gene, was obtained by digestion of pRL-CMV with HindIII for 2 h at 37° C. and then with BamHI in the same condition. After digestion, the mixture was electrophoresed on 0.8% agarose gel in TAE 1× buffer (40 mM Tris-HCl (pH 7.8), 1.1 mM EDTA and 37 mM sodium acetate) and the fragment corresponding to luciferase gene was isolated by excision. The labelling of luciferase gene was performed using the Rediprime II DNA labelling system (Amersham Pharmacia biotech, cat n. RPN 1633) and Redivue stabilised [α-^32P]dCTP (Amersham Pharmacia biotech, cat n. AA 0005) according to purchased protocol.
Slot Blot. DNA samples were absorbed on positively charged Nylon membrane (Boehringer, cat. n. 1209299) using Biorad Slot Blot apparatus. The DNA was linked to the filter by U.V. Stratalinker-2400 (Stratagene). After pre-incubation of the filter with QuikHyb Hybridization Solution (Stratagene, cat. n. 201220) for 20 min at 68° C., 2.5×10^6 cpm/ml of labelled probe was added, after boiling, with salmon sperm DNA, for 2 min. The hybridization was performed at 68° C. for 1 h, and then the filter was washed twice with buffer I (SSC 2×, SDS 0.1%) for 15 min at room temperature and then with buffer II (SSC 0.1×, SDS 0.1%) for 30 min at 60° C. The filter was exposed to “Phosphor Imager” box and then analysed by densitometry using a IPlab Gel software.

[3] = Dotap/DNA complex + ALC 5 mM, slots 19-24
[4] = Dotap/DNA complex + ALC 10 mM, slots 31-36
[5] = nude DNA + ALC 5 mM, slots 13-18

## CC(=O)O[C@H](CC(=O)[O-])C[N+](C)(C)C [ALC, acetyl L-carnitine]
[1]; 5 mM ALC + ETS (no Dotap)
  RLU/mg mean: 17,025 RLU/mg
[1]; 5 mM ALC + LUC (no Dotap)
  RLU/mg mean: 18,060 RLU/mg
[1]; 5 mM ALC + dota + LUC
  RLU/mg mean: 779,340 RLU/mg
[1]; 5 mM ALC + dotap + ETS
  RLU/mg mean: 22,411 RLU/mg
[1]; 5 mM ALC, lysates at 24 h
  increase of mean RLU per mg of total proteins as compared to untreated samples: approximately 1.6 fold
[1]; 10 mM ALC + ETS (no Dotap)
  RLU/mg mean: 17,724 RLU/mg
[1]; 10 mM ALC + LUC (no Dotap)
  RLU/mg mean: 20,481 RLU/mg
[1]; 10 mM ALC + dotap + ETS
  RLU/mg mean: 20,520 RLU/mg
[1]; 10 mM ALC + dotap + LUC
  RLU/mg mean: 750,034 RLU/mg
[1]; 10 mM ALC, lysates at 24 h
  luciferase expression compared with 5 mM ALC: no additional increase
[1]; lysates at 48 h after transfection
  RLUs per mg of proteins, treated vs untreated samples: no significant differences
[1]; lysates at 72 h
  luciferase expression: no luciferase expression
[2]; 10 mM ALC
  Slot blot densitometry vs untreated: little decrease
[2]; 24 h after transfection
  Slot blot densitometry, transfected cells in presence vs absence of ALC: no difference
[2]; [3]
  densitometric volume, mean: 240634.5 relative units
  densitometric volume, single values: 222013 relative units and 255756 relative units and 253422 relative units and 234654 relative units and 239053 relative units and 238909 relative units
[2]; [4]
  densitometric volume, mean: 165345 relative units
  densitometric volume, single values: 173870 relative units and 225644 relative units and 116848 relative units and 114911 relative units and 157762 relative units and 203035 relative units
[2]; Nude DNA + ALC 10 mM, slots 25-30
  densitometric volume, mean: 52595.2 relative units
[2]; [5]
  densitometric volume, mean: 61441.5 relative units
  densitometric volume, single values: 59846 relative units and 58324 relative units and 61431 relative units and 70373 relative units and 63045 relative units and 55630 relative units
